The test system of this test is BDF1 mice, P388 leukemia ip, median survival T/C. Kind of test: NCI In Vivo Anticancer Drug Screen. Data for tumor model P388 Leukemia (intraperitoneal) in B6D2F1 (BDF1) mice. The following applies: endpoint: median survival time, higher = longer survival. An outline of the steps: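 Each value expresses how treatment altered survival: treated-mouse outcome over vehicle-mouse outcome, both groups bearing the transplanted tumour.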

Setting [1] is: dose: 100.0 mg/kg/injection, schedule: Q04DX003 (ip), vehicle: saline with Tween-80.
[2] abbreviates: dose: 200.0 mg/kg/injection, schedule: Q04DX003 (ip), vehicle: saline with Tween-80.
Setting [3] is: dose: 400.0 mg/kg/injection, schedule: Q04DX003 (ip), vehicle: saline with Tween-80.
Setting [4] is: dose: 100.0 mg/kg/injection, schedule: Q01DX009 (ip), vehicle: Klucel (hydroxypropylcellulose) (HPC).
The mark [5] stands for this setting: dose: 200.0 mg/kg/injection, schedule: Q01DX009 (ip), vehicle: Klucel (hydroxypropylcellulose) (HPC).
Setting [6] is: dose: 1.56 mg/kg/injection, schedule: Q01DX009 (ip), vehicle: saline.
[7] abbreviates: dose: 100.0 mg/kg/injection, schedule: Q01DX009 (ip), vehicle: saline with Tween-80.
Setting [8] is: dose: 200.0 mg/kg/injection, schedule: Q01DX009 (ip), vehicle: saline with Tween-80.
Where [9] appears, read: dose: 400.0 mg/kg/injection, schedule: Q01DX009 (ip), vehicle: saline with Tween-80.
Where [10] appears, read: dose: 100.0 mg/kg/injection, schedule: Q04DX003 (ip), vehicle: saline.
The mark [11] stands for this setting: dose: 200.0 mg/kg/injection, schedule: Q04DX003 (ip), vehicle: saline.
The mark [12] stands for this setting: dose: 400.0 mg/kg/injection, schedule: Q04DX003 (ip), vehicle: saline.
[13] abbreviates: dose: 50.0 mg/kg/injection, schedule: Q01DX009 (ip), vehicle: saline with Tween-80.
[14] abbreviates: dose: 25.0 mg/kg/injection, schedule: Q04DX003 (ip), vehicle: saline.

Structures are written as SMILES. Several values for one entry are separate records, joined by “and”; a condition that tells them apart may be missing. Equal entries are not always repeated. Inconclusive results and toxic doses are left out.

Consider `Nc1ccc(C(OC(=O)c2cc3ccccc3c(Cc3c(O)c(C(=O)OC(c4ccc(N)cc4)(c4ccc(N)cc4)c4ccc(N)cc4)cc4ccccc34)c2O)(c2ccc(N)cc2)c2ccc(N)cc2)cc1`, for which the T/C (dose: 12.5 mg/kg/injection, schedule: Q01DX009 (ip), vehicle: saline with Tween-80) was 150 % of control.

With `CCCCCCCC(=O)Nc1c(C)cccc1C`, the T/C under setting [1] is 100 % of control, the T/C under setting [2] was 100 % of control and the T/C under setting [3] is 95 % of control.

Regarding `C1CC[N-]CC1.C1CC[N-]CC1.C1CC[N-]CC1.C1CC[N-]CC1.N#C[S-].N#C[S-].[Ni]`, the T/C is 100 % of control (dose: 5.0 mg/kg/injection, schedule: Q01DX009 (ip), vehicle: saline with Tween-80); 100 % of control (dose: 10.0 mg/kg/injection, schedule: Q01DX009 (ip), vehicle: saline with Tween-80); 108 % of control (dose: 20.0 mg/kg/injection, schedule: Q01DX009 (ip), vehicle: saline with Tween-80).

With `CN(Nc1c([N+](=O)[O-])cc([N+](=O)[O-])cc1[N+](=O)[O-])c1ccc2ccccc2c1`, the T/C by setting is: under setting [4], 120 % of control; under setting [5], 105 % of control; (dose: 400.0 mg/kg/injection, schedule: Q01DX009 (ip), vehicle: Klucel (hydroxypropylcellulose) (HPC)) 110 % of control.

On to `CCOC(=O)C1=C(C)NC(C)=C(C(=O)OCC)C1c1cccc([N+](=O)[O-])c1`, for which the T/C is 105 % of control (dose: 50.0 mg/kg/injection, schedule: Q01DX009 (ip), vehicle: Klucel (hydroxypropylcellulose) (HPC)); 100 % of control under setting [4]; 90 % of control under setting [5].

Take `CCC1NC(C)(C)CC1=C(C)C` (configuration not stated): the T/C runs as follows: under setting [6], 104 % of control; (dose: 3.13 mg/kg/injection, schedule: Q01DX009 (ip), vehicle: saline) 104 % of control; (dose: 6.25 mg/kg/injection, schedule: Q01DX009 (ip), vehicle: saline) 104 % of control.

In the case of `c1cc2cnc3cccc4cnc(c1)c2c43`, the T/C was 100 % of control (dose: 100.0 mg/kg/injection, schedule: Q01DX001 (ip), vehicle: saline sonified) and 100 % of control (dose: 400.0 mg/kg/injection, schedule: Q01DX001 (ip), vehicle: saline sonified).

Regarding `CC(C)CCOC(=O)CN(CC(=O)OCCC(C)C)c1ccccc1`, the T/C runs as follows: under setting [7], 100 % of control; under setting [8], 100 % of control; under setting [9], 95 % of control.

Turning to `CCCCSCC(N)C(=O)OC` (configuration not stated), the T/C runs as follows: (dose: 100.0 mg/kg/injection, schedule: Q01DX009 (ip), vehicle: saline) 103 % of control; under setting [10], 100 % of control; (dose: 200.0 mg/kg/injection, schedule: Q01DX009 (ip), vehicle: saline) 111 % of control; under setting [11], 104 % of control; (dose: 400.0 mg/kg/injection, schedule: Q01DX009 (ip), vehicle: saline) 106 % of control; under setting [12], 109 % of control.

For `Cc1ccccc1NC=O`, the T/C is, setting by setting: (dose: 90.0 mg/kg/injection, schedule: Q01DX009 (ip), vehicle: saline with Tween-80) 103 % of control; under setting [1], 95 % of control; (dose: 135.0 mg/kg/injection, schedule: Q01DX009 (ip), vehicle: saline with Tween-80) 107 % of control; under setting [8], 99 % of control; under setting [2], 104 % of control; (dose: 300.0 mg/kg/injection, schedule: Q01DX009 (ip), vehicle: saline with Tween-80) 107 % of control. Further, the T/C runs as follows: under setting [9], 120 % of control; under setting [3], 116 % of control.

Turning to `O=C(CCNOCc1ccccc1)OCc1ccccc1`, the T/C by setting is: (dose: 12.5 mg/kg/injection, schedule: Q01DX009 (ip), vehicle: other) 101 % of control; (dose: 25.0 mg/kg/injection, schedule: Q01DX009 (ip), vehicle: other) 100 % of control; (dose: 50.0 mg/kg/injection, schedule: Q01DX009 (ip), vehicle: other) 101 % of control; (dose: 200.0 mg/kg/injection, schedule: Q01DX009 (ip), vehicle: other) 89 % of control.

Turning to `CC(C)(N)CCC(C)(C)NCCC#N`, the T/C (dose: 50.0 mg/kg/injection, schedule: Q01DX009 (ip), vehicle: water) was 103 % of control; the T/C (dose: 100.0 mg/kg/injection, schedule: Q01DX009 (ip), vehicle: water) is 99 % of control; the T/C (dose: 100.0 mg/kg/injection, schedule: Q04DX003 (ip), vehicle: water) was 110 % of control; the T/C (dose: 200.0 mg/kg/injection, schedule: Q01DX009 (ip), vehicle: water) is 122 % of control; the T/C (dose: 200.0 mg/kg/injection, schedule: Q04DX003 (ip), vehicle: water) is 103 % of control; the T/C (dose: 400.0 mg/kg/injection, schedule: Q01DX009 (ip), vehicle: water) is 114 % of control. In addition, the T/C (dose: 400.0 mg/kg/injection, schedule: Q04DX003 (ip), vehicle: water) is 103 % of control.

On to `CCCCCCCCOc1cc(OCCCCCCCC)c2c(ccc3ccccc32)c1`, for which the T/C under setting [1] was 97 % of control, the T/C under setting [2] was 88 % of control and the T/C under setting [3] was 94 % of control.

For the molecule `CC(C(=O)c1ccccc1)C(Cl)c1ccccc1` (configuration not stated), the T/C by setting is: under setting [13], 95 % of control; under setting [7], 94 % of control; under setting [1], 89 % of control; under setting [8], 86 % of control; under setting [2], 89 % of control; under setting [9], 86 % of control. Also, under setting [3], the T/C was 98 % of control.

In the case of `O=C(c1ccccc1)C1OC1c1ccc([N+](=O)[O-])cc1` (configuration not stated), the T/C is 104 % of control (dose: 100.0 mg/kg/injection, schedule: Q04DX003 (ip), vehicle: saline sonified); 100 % of control (dose: 200.0 mg/kg/injection, schedule: Q04DX003 (ip), vehicle: saline sonified); 100 % of control (dose: 400.0 mg/kg/injection, schedule: Q04DX003 (ip), vehicle: saline sonified).

For the molecule `C=CCC#N`, the T/C was 95 % of control (dose: 12.5 mg/kg/injection, schedule: Q01DX009 (ip), vehicle: saline); 95 % of control (dose: 25.0 mg/kg/injection, schedule: Q01DX009 (ip), vehicle: saline); 100 % of control under setting [14]; 95 % of control (dose: 50.0 mg/kg/injection, schedule: Q04DX003 (ip), vehicle: saline).

As to `COCCOCCN1CCN(CCCN2c3ccccc3Sc3ccc(C(F)(F)F)cc32)CC1`, the T/C by setting is: (dose: 12.5 mg/kg/injection, schedule: Q04DX003 (ip), vehicle: saline) 112 % of control; under setting [14], 108 % of control.

As to `O=C(O)/C=C/c1ccc(Cl)cc1Cl`, the T/C by setting is: under setting [13], 95 % of control; under setting [7], 90 % of control; under setting [8], 90 % of control.

With `CC1(C)C(=O)C(C)(C)C1=NO`, the T/C reads like this: under setting [10], 95 % of control; under setting [11], 100 % of control; under setting [12], 95 % of control.

Turning to `O=C1c2ccccc2C(=O)N1CC(O)CCl` (configuration not stated), the T/C reads like this: under setting [13], 104 % of control; (dose: 50.0 mg/kg/injection, schedule: Q04DX003 (ip), vehicle: saline with Tween-80) 100 % of control; under setting [7], 112 % of control; under setting [1], 104 % of control; under setting [8], 88 % of control; under setting [2], 108 % of control.

As for `CO[C@H]1OC(=O)C=C2C1=C[C@H]1OC(=O)[C@@]3(C)CCC[C@@]2(C)[C@@H]13`, the T/C is, setting by setting: (dose: 12.5 mg/kg/injection, schedule: Q01DX009 (ip), vehicle: Klucel (hydroxypropylcellulose) (HPC)) 100 % of control; (dose: 25.0 mg/kg/injection, schedule: Q01DX009 (ip), vehicle: Klucel (hydroxypropylcellulose) (HPC)) 100 % of control.

With `O=[P+](O)C(O)c1ccccc1` (configuration not stated), the T/C is 100 % of control under setting [10], 108 % of control under setting [11] and 91 % of control under setting [12].

Consider `CCCN1CSC(=S)N(Cc2ccccc2)C1`, for which the T/C is, setting by setting: under setting [7], 90 % of control; under setting [1], 95 % of control; under setting [8], 100 % of control; under setting [2], 95 % of control; under setting [9], 90 % of control; under setting [3], 95 % of control.

`NCc1cn(C2OC(CO)C(O)C2O)c2ncnc(N)c12` (configuration not stated): the T/C under setting [6] was 91 % of control and 99 % of control; the T/C (dose: 3.12 mg/kg/injection, schedule: Q01DX009 (ip), vehicle: saline) was 100 % of control and 123 % of control; the T/C (dose: 3.12 mg/kg/injection, schedule: Q04DX003 (ip), vehicle: saline) is 95 % of control; the T/C (dose: 6.25 mg/kg/injection, schedule: Q04DX003 (ip), vehicle: saline) was 91 % of control.

Source of the values: PubChem BioAssay AID328 (DTP/NCI, 2004).
